One molecule from patent US9675595B2, “Synergistic combinations of PI3K- and MEK-inhibitors” (Novartis AG, priority 2011, dated 2017) can be followed below.

This test concerns Melanoma cell lines. The test is described as follows: Cell line testing, dose matrix, Example 3, melanoma panel. It counts as cell-based. The note with it: melanoma lines with activating NRAS mutation and BRAF mutants. On the procedure:
The combination of PI3K inhibitor COMPOUND A and MEK inhibitor COMPOUND B, as defined above, was tested across 38 cell lines from three tissue types (7 pancreas, 10 lung, and 21 melanoma). Each combination was tested in a partially-filled “dose matrix” constructed as follows: Each single drug was dispensed into growth media at a top concentration (11 μM for COMPOUND A or 2.7 μM for COMPOUND B), and serially diluted by 3× to yield a 7 point series covering a factor of 729 in concentration. The compounds were then combined at all pairs of the 2nd through the 6th concentrations, and this dose matrix was extended by also combining the top and bottom concentrations with each other. […] In order to identify cytotoxic treatments, we also determined “Day 0” cell populations at the start of drug treatment.
Cell responses at each treatment were measured using simple inhibitions I=1−T/V, where T is the treated well's raw response and V is the median untreated level between replicate wells on the plate. Cytotoxicity measurements were measured using a “Growth Inhibition” GI=1−(T−V0)/[T<V0? […] The “Synergy Score” SLoewe=ΣX,Y lnfX lnfY max(0,Idata) max(0,Idata−ILoewe) was calculated from the differences between the data Idata and the dose-additive surface ILoewe, across all combined concentrations X,Y, and weighted by the measured inhibition and the single agent dilution factors fX, fY. […]

Take `Cc1nc(NC(=O)N2CCC[C@H]2C(N)=O)sc1-c1ccnc(C(C)(C)C(F)(F)F)c1` [COMPOUND A, (S)-pyrrolidine-1,2-dicarboxylic acid 2-amide 1-({4-methyl-5-[2-(2,2,2-trifluoro-1,1-dimethyl-ethyl)-pyridin-4-yl]-thiazol-2-yl}-amide)]: the “response as a single agent” value is “weak responses”.
